Data taken from patent US9944968B2, “Control of protein glycosylation by culture medium supplementation and cell culture process parameters” (Biogen MA Inc., priority 2013, dated 2018).
Like-named read-outs stand apart in the source and are kept apart here.

Legend:
DUXB11 cell lines [1] = format: cell-based, Chinese hamster; details: for impact on afucosylation: 3 L bioreactor, harvest D13; for Afucosylation (%) / Titer: MPA supplementation Day 5, DUXB11
Description: FIG. 8. Impact of the timing of supplementation with Mycophenolic acid (MPA) on afucosylation of DUXB11 cell line in 3 L bioreactors (A, B, C, and D) with the same seed density following the platform process. When the viable cell density (VCD) reached its peak (Day 5 in the study), fixed 5 μM of MPA was added in bioreactor A. At the same time, MPA was added in bioreactor B based on the VCD value to make sure MPA per cell is the same as the platform process to eliminate the possible impact of different cell growth. The next day (one day past peak VCD day, D6 in this study), fixed 5 μM of MPA was added in bioreactor C and MPA was added in bioreactor D based on its D6 VCD value to make sure MPA per cell is the same as the platform process to eliminate the possible impact of different cell growth. All bioreactors were harvested on D13. The filtered supernatant samples were analyzed for titer and N-glycan analysis for afucosylation level.
DUXB11 cell lines were cultured in 3 L bioreactor respectively following the platform process. On day 6, various amounts of MPA were dosed (0 μM and 5 μM). After dosing MPA, bioreactors were kept running until they were harvested on day 13. Filtered supernatant samples were analyzed for titer and N-glycan analysis for afucosylation level.
The culture conditions are described in FIG. 8. […] In addition, afucosylation level was increased with peak VCD day MPA addition (fixed 5 μM MPA vs. VCD based MPA addition).
The effect of temperature shift and supplementation with MPA is provided in FIG. 12, FIG. 13, FIG. 14A, and FIG. 14B and Table 11 below.

DUXB11 cell lines [2] = format: cell-based, Chinese hamster; details: for Cell viability (%): Chinese hamster, 3 days
Description: FIG. 7A and FIG. 7B. Impact of Mycophenolic acid (MPA) on afucosylation in cell lines (FIG. 7A and FIG. 7B showing two different cell lines) derived from DUXB11. The cells were cultured in 3 L bioreactor respectively for 7 days following the platform process. On day 7, the cells were divided into several 1 L shake flasks with 200 mL working volume and then dosed with various amounts of MPA (0 μM, […], 10 μM, 30 μM). After dosing MPA, shake flask fed-batch is conducted until day-3 harvest. Filtered supernatant samples were analyzed for titer and N-glycan analysis for afucosylation level.
DUXB11 cell lines (cell line #1 and #2) were cultured in 3 L bioreactor respectively for 7 days following the platform process. On day 7, the cells were divided into several 1 L shake flasks with 200 mL working volume and then dosed with various amounts of MPA (0 μM, 1 μM, 10 μM, 30 μM). After dosing MPA, shake flask fed-batch is conducted until day-3 harvest. Filtered supernatant samples were analyzed for titer and N-glycan analysis for afucosylation level. […] However, the titer was decreased (side effect) (see Table 8 below and FIG. 7A and FIG. 7B). […] The impact on viability became much more significant in bioreactor process (see Example 9 below).

BIIB603 cell line = test: BIIB603 shake flask fed-batch with MPA or acMPAG: afucosylation (N-glycan analysis); format: cell-based; details: BIIB603 shake flasks; MPA 20, 40 μM or acMPAG 20 μM dosed day 6; 4 more days at 31 °C; FIG. 18
Description: (§1) FIG. 18. Impact of Mycophenolic acid (MPA) and Mycophenolic acid acyl glucuronide (acMPAG) on afucosylation in BIIB603 cell line. The cells were scaled up to 5 L BR for fed-batch production process. On day 5, temperature was shifted from 37° C. to 31° C. On day 6, cell culture was drained from the bioreactor and divided into several 500 mL shake flasks with 100 mL working volume and then dosed with various amounts of MPA (0 μM, 20 μM, 40 μM) or acMPAG (20 μM) in duplicates. After dosing, the shake flasks were cultured another 4 days at 31° C., 5% CO2 and 150 rpm with fed-batch process and then harvested. The supernatant was sent for PQ assay (N-glycan analysis) for afucosylation level.
as §1, with “BIIB603” for “FIG. 18. Impact of Mycophenolic acid (MPA) and Mycophenolic acid acyl glucuronide (acMPAG) on afucosylation in BIIB603”, “line was” for “line. The cells were”

FcgRIII a = test: FcgRIIIa binding of product after insulin and MPA supplement on DUXB11
DUXB11 cell line = test: DUXB11 3 L bioreactor with insulin additions and fixed MPA: afucosylation, glycosylation map, titer; format: cell-based, Chinese hamster; set-up: M3F / Afucosyl / G0 / G0F / MS / G1 + G1′ / G1F + G1F′ / M6 / G2 / G2F: unit not given here; details: for Afucosyl / G0 / G0F / G1 + G1′ / G1F + G1F′ / G2 / G2F / M3F / M6 / MS: with MPA, DUXB11; for Afucosylation (%) / Titer: fixed 5 μM MPA, DUXB11 3 L bioreactor
Description: FIG. 11. […] Fixed 5 μM of MPA was added on Day 9 in all bioreactors and harvested on the same day. Filtered supernatant samples were analyzed for titer and N-glycan analysis for afucosylation level.
The culture conditions are described in FIG. 11.

[3] = 1 μM MPA dosed day 7, DUXB11 shake flask, harvest 3 days after dosing
[4] = 10 μM MPA dosed day 7, DUXB11 shake flask, harvest 3 days after dosing
[5] = 30 μM MPA dosed day 7, DUXB11 shake flask, harvest 3 days after dosing
[6] = increasing MPA dosing concentration (1, 10, 30 μM), shake flask

Compound: COc1c(C)c2c(c(O)c1C/C=C(\C)CCC(=O)O)C(=O)OC2 [MPA, mycophenolic acid]
- impact on afucosylation (DUXB11 cell lines [1]; MPA added on a different day than peak VCD (one day past, D6)): non-significant impact
- impact on afucosylation (DUXB11 cell lines [1]; MPA added on the day of peak VCD (Day 5), fixed 5 μM or VCD based): significant impact
- Afucosylation (%) (DUXB11 cell lines [1]; temperature 35 to 30 °C): 11.9%
- Titer (DUXB11 cell lines [1]; temperature 35 to 30 °C): 1.5 g/L
- Afucosylation (%) (DUXB11 cell lines [1]; temperature 35 to 33 °C): 10.7%
- Titer (DUXB11 cell lines [1]; temperature 35 to 33 °C): 1.8 g/L
- impact on viability (DUXB11 cell lines [2]): not significant
- Afucosylation (%) (DUXB11 cell lines [2]; [3]): 3.85%
- Titer (DUXB11 cell lines [2]; [3]): 0.136 g/L
- Afucosylation (%) (DUXB11 cell lines [2]; [4]): 4.9%
- Titer (DUXB11 cell lines [2]; [4]): 0.106 g/L
- Afucosylation (%) (DUXB11 cell lines [2]; [5]): 4.4%
- Titer (DUXB11 cell lines [2]; [5]): 0.105 g/L
- Cell viability (%) (DUXB11 cell lines [2]; 1 μM): 62%
- Cell viability (%) (DUXB11 cell lines [2]; 10 μM): 61%
- Cell viability (%) (DUXB11 cell lines [2]; 30 μM): 62%
- Titer (DUXB11 cell lines [2]; [6]): decreased
- afucosylation level (DUXB11 cell lines [2]; [6]): increase
- afucosylation level (BIIB603 cell line): increase in the afucosylation level

Compound: COc1c(C)c2c(c(O)c1C/C=C(\C)CCC(=O)O[C@@H]1O[C@H](C(=O)O)[C@@H](O)[C@H](O)[C@H]1O)C(=O)OC2 [acMPAG, mycophenolic acid acyl glucuronide]
- afucosylation level (BIIB603 cell line): increased the afucosylation level to similar extent

Compound: insulin
- FcgRIII a binding (FcgRIII a; 2.5 mg/L ins in feed 1, with MPA): 60
- FcgRIII a binding (FcgRIII a; 10 mg/L ins in feed 1, with MPA): 71
- FcgRIII a binding (FcgRIII a; 30 mg/L ins in feed 1, with MPA): 100
- FcgRIII a binding (FcgRIII a; 60 mg/L ins in feed 1, with MPA): 100
- Afucosyl (DUXB11 cell line; 2.5 mg/L ins in feed 1): 4.9
- G0 (DUXB11 cell line; 2.5 mg/L ins in feed 1): 3.9
- G0F (DUXB11 cell line; 2.5 mg/L ins in feed 1): 68.1
- G1 + G1′ (DUXB11 cell line; 2.5 mg/L ins in feed 1): 0.9
- G1F + G1F′ (DUXB11 cell line; 2.5 mg/L ins in feed 1): 20.2
- G2 (DUXB11 cell line; 2.5 mg/L ins in feed 1): 0.0
- G2F (DUXB11 cell line; 2.5 mg/L ins in feed 1): 1.8
- M3F (DUXB11 cell line; 2.5 mg/L ins in feed 1): 1.0
- M6 (DUXB11 cell line; 2.5 mg/L ins in feed 1): 0.90
- MS (DUXB11 cell line; 2.5 mg/L ins in feed 1): 2.2
- Afucosyl (DUXB11 cell line; 10 mg/L ins in feed 1): 6.2
- G0 (DUXB11 cell line; 10 mg/L ins in feed 1): 5.1
- G0F (DUXB11 cell line; 10 mg/L ins in feed 1): 64.9
- G1 + G1′ (DUXB11 cell line; 10 mg/L ins in feed 1): 1.1
- G1F + G1F′ (DUXB11 cell line; 10 mg/L ins in feed 1): 21.7
- G2 (DUXB11 cell line; 10 mg/L ins in feed 1): 0.0
- G2F (DUXB11 cell line; 10 mg/L ins in feed 1): 2.3
- M3F (DUXB11 cell line; 10 mg/L ins in feed 1): 0.9
- M6 (DUXB11 cell line; 10 mg/L ins in feed 1): 0.9
- MS (DUXB11 cell line; 10 mg/L ins in feed 1): 2.2
- G0 (DUXB11 cell line; 30 mg/L ins in feed 1): 6.7
- G0F (DUXB11 cell line; 30 mg/L ins in feed 1): 62.5
- G1 + G1′ (DUXB11 cell line; 30 mg/L ins in feed 1): 1.3
- G1F + G1F′ (DUXB11 cell line; 30 mg/L ins in feed 1): 21.1
- G2 (DUXB11 cell line; 30 mg/L ins in feed 1): 0.0
- G2F (DUXB11 cell line; 30 mg/L ins in feed 1): 2.3
- M3F (DUXB11 cell line; 30 mg/L ins in feed 1): 0.9
- M6 (DUXB11 cell line; 30 mg/L ins in feed 1): 1.1
- MS (DUXB11 cell line; 30 mg/L ins in feed 1): 2.4
- G0 (DUXB11 cell line; 60 mg/L ins in feed 1): 6.4
- G0F (DUXB11 cell line; 60 mg/L ins in feed 1): 61.4
- G1 + G1′ (DUXB11 cell line; 60 mg/L ins in feed 1): 1.4
- G1F + G1F′ (DUXB11 cell line; 60 mg/L ins in feed 1): 22.9
- G2 (DUXB11 cell line; 60 mg/L ins in feed 1): 0.0
- G2F (DUXB11 cell line; 60 mg/L ins in feed 1): 2.6
- M3F (DUXB11 cell line; 60 mg/L ins in feed 1): 0.8
- M6 (DUXB11 cell line; 60 mg/L ins in feed 1): 0.9
- MS (DUXB11 cell line; 60 mg/L ins in feed 1): 2.5
- afucosylation (DUXB11 cell line; increasing insulin concentration with same MPA supplementation, fed-batch culture): increased afucosylation
- Afucosylation (%) (DUXB11 cell line; total insulin added 11 mg/L): 4.9%
- Titer (DUXB11 cell line; total insulin added 11 mg/L): 2.3 g/L
- Afucosylation (%) (DUXB11 cell line; total insulin added 13 mg/L): 6.2%
- Titer (DUXB11 cell line; total insulin added 13 mg/L): 2.6 g/L
